Values quoted from earlier work in patent US20100069389A1, “NOVEL FORMS OF REBOXETINE” (Bionevia Pharmaceuticals, Inc., priority 2008, published 2010).

Conditions: humans; Denolle et al., Clin Pharmacol Ther. 1999

In the case of `CCOc1ccccc1OC(c1ccccc1)C1CNCCO1` (racemic) [Racemic reboxetine, (2RS)-2-[(RS)-(2-ethoxyphenoxy)-phenylmethyl]morpholine], the “Blood pressure and heart rate increases compared with (R,R)-reboxetine” value is given as “greater blood pressure increases and heart rate increases in humans than does administration of (R,R)-reboxetine”.
